Patent US10968217B2, “Tetrahydropyridopyrimidines for the treatment and prophylaxis of hepatitis B virus infection” (Hoffmann-La Roche Inc., priority 2016, dated 2021)

System: HBV DNA
Assay: HBV DNA assay (real-time qPCR of extracellular HBV DNA, HepG2.2.15 cells)
Type: cell-based
Details: Hepatitis B virus, 144 h, extracellular HBV DNA in supernatant, six days after treatment, read-out: IC50 (Anti HBV DNA production activity)
Protocol: (§1) HepG2.2.15 cells (Acs et al. Proc Natl Acad Sci USA, 84, (1987), 4641-4), a constitutively HBV-expressing cell line were cultured in DMEM+Glutamax-I medium (Invitrogen, Carlsbad, Calif., USA), supplemented with 10% fetal bovine serum (Invitrogen) and G418 (Invitrogen) at a final concentration of 200 mg/L and maintained in 5% CO2 at 37° C.
The assay employs real-time qPCR (TaqMan) to directly measure extracellular HBV DNA copy number in the cell supernatant. HepG2.2.15 cells were plated in 96-well microtiter plates before treatment with complete medium (DMEM, Glutamax, 10% FBS, 1% Penicillin/Streptomycin, 250 μg/mL Genetycin, final DMSO concentration is 1%). Only the interior wells were utilized to reduce “edge effects” observed during cell culture, the exterior wells were filled with complete medium to help minimize sample evaporation. […]

Row | SMILES | IC50 [µM]
1 | COc1ccc(C(=O)N2CCc3nc(-c4ccccn4)ncc3C2C)s1 (stereo not shown) [Example 58, (5-Methoxy-2-thienyl)-[5-methyl-2-(2-pyridyl)-7,8-dihydro-5H-pyrido[4,3-d]pyrimidin-6-yl]methanone] | 41.9

System: HBsAg
Assay: HBsAg assay (CLIA of secreted HBsAg in HepG2.2.15 culture supernatant)
Type: cell-based, HBV
Details: Hepatitis B virus, HepG2.2.15, read-out: IC50 (HBsAg assay)
Protocol: as §1
HepG2.2.15 cells were seeded in duplicate into white, 96-well plates at 1.5×10^4 cells/well. The cells were treated with a three-fold serial dilution series of the compounds in DMSO. The final DMSO concentration in all wells was 1% and DMSO was used as no drug control.
The HBsAg chemiluminescence immunoassay (CLIA) kit (Autobio Diagnostics Co., Zhengzhou, China, Catalog number: CL0310-2) was used to measure the levels of secreted HBV antigens semi-quantitatively. For the detection 50 μL/well culture supernatant was used and HBsAg was quantified using HBsAg chemiluminescence immunoassay (CLIA) kit (Autobio Diagnostics Co., Zhengzhou, China, Catalog number: CL0310-2), 50 μL of the supernatant was transferred to the CLIA assay plate and 50 μL of enzyme conjugate reagent was added into each well. The plates were sealed and gently agitated for 1 hour at room temperature. The supernatant-enzyme-mixture was discarded and wells were washed 6 times with 300 μL of PBS. The residual liquid was removed by plating the CLIA plate right side down on absorbent tissue paper. 25 μL of substrates A and B were added to each well. Luminance was measured using a luminometer (Mithras LB 940 Multimode Microplate Reader) after 10 minutes incubation. Dose-response curves were generated and the IC50 value was extrapolated by using the E-WorkBook Suite (ID Business Solutions Ltd., Guildford, UK). The IC50 was defined as the compound concentration at which HBsAg secretion was reduced by 50% compared to the no drug control.

Row | SMILES | IC50 [µM]
2 | Cc1ccc(C(=O)N2CCc3nc(-c4ccccn4)ncc3C2)cn1 [Example 31, (6-Methyl-3-pyridyl)-[2-(2-pyridyl)-7,8-dihydro-5H-pyrido[4,3-d]pyrimidin-6-yl]methanone] | 31.9
3 | COc1ccc(C(=O)N2CCc3nc(-c4ccccn4)ncc3C2C)s1 (stereo not shown) [Example 58, (5-Methoxy-2-thienyl)-[5-methyl-2-(2-pyridyl)-7,8-dihydro-5H-pyrido[4,3-d]pyrimidin-6-yl]methanone] | 0.279
4 | CCOc1ccc(C(=O)N2CCc3nc(-c4ccccn4)ncc3C2)cc1F [Example 13, (4-Ethoxy-3-fluoro-phenyl)-[2-(2-pyridyl)-7,8-dihydro-5H-pyrido[4,3-d]pyrimidin-6-yl]methanone] | 6.56
5 | COc1cc(C(=O)N2CCc3nc(-c4ccccn4)ncc3C2)cc(OC)c1OC [Example 16, [2-(2-Pyridyl)-7,8-dihydro-5H-pyrido[4,3-d]pyrimidin-6-yl]-(3,4,5-trimethoxyphenyl)methanone] | 8.23
6 | CC1c2cnc(-c3ccccn3)nc2CCN1C(=O)c1ncco1 (stereo not shown) [Example 60, [5-Methyl-2-(2-pyridyl)-7,8-dihydro-5H-pyrido[4,3-d]pyrimidin-6-yl]-oxazol-2-yl-methanone] | 2.61
7 | COc1ccc(C(=O)N2CCc3nc(-c4ccccn4)ncc3C2)cc1OC [Example 22, (3,4-Dimethoxyphenyl)-[2-(2-pyridyl)-7,8-dihydro-5H-pyrido[4,3-d]pyrimidin-6-yl]methanone] | 28
8 | N#Cc1ccc(C(=O)N2CCc3nc(-c4ccccn4)ncc3C2)cc1 [Example 2, 4-[2-(2-Pyridyl)-7,8-dihydro-5H-pyrido[4,3-d]pyrimidine-6-carbonyl]benzonitrile] | 17
9 | CC1c2cnc(-c3ccccn3)nc2CCN1C(=O)c1ncc[nH]1 (stereo not shown) [Example 56, 1H-Imidazol-2-yl-[5-methyl-2-(2-pyridyl)-7,8-dihydro-5H-pyrido[4,3-d]pyrimidin-6-yl]methanone] | 1.08
10 | Cc1csc(C(=O)N2CCc3nc(-c4ccccn4)ncc3C2C)c1 (stereo not shown) [Example 41, [5-Methyl-2-(2-pyridyl)-7,8-dihydro-5H-pyrido[4,3-d]pyrimidin-6-yl]-(4-methyl-2-thienyl)methanone] | 0.38
11 | COc1c(F)cc(C(=O)N2CCc3nc(-c4ccccn4)ncc3C2)cc1F [Example 30, (3,5-Difluoro-4-methoxy-phenyl)-[2-(2-pyridyl)-7,8-dihydro-5H-pyrido[4,3-d]pyrimidin-6-yl]methanone] | 25.2
12 | O=C(c1ccc([N+](=O)[O-])cc1)N1CCc2nc(-c3ccccn3)ncc2C1 [Example 3, (4-Nitrophenyl)-[2-(2-pyridyl)-7,8-dihydro-5H-pyrido[4,3-d]pyrimidin-6-yl]methanone] | 27.3
13 | CC1c2cnc(-c3ccccn3)nc2CCN1C(=O)c1cccs1 (stereo not shown) [Example 49, [5-Methyl-2-(2-pyridyl)-7,8-dihydro-5H-pyrido[4,3-d]pyrimidin-6-yl]-(2-thienyl)methanone] | 1.11
14 | COc1cc(OC)cc(C(=O)N2CCc3nc(-c4ccccn4)ncc3C2)c1 [Example 19, (3,5-Dimethoxyphenyl)-[2-(2-pyridyl)-7,8-dihydro-5H-pyrido[4,3-d]pyrimidin-6-yl]methanone] | 8.99
15 | COCCCOc1ccc(C(=O)N2CCc3nc(-c4ccccn4)ncc3C2)cc1Cl [Example 24, [3-Chloro-4-(3-methoxypropoxy)phenyl]-[2-(2-pyridyl)-7,8-dihydro-5H-pyrido[4,3-d]pyrimidin-6-yl]methanone] | 3.18
16 | Cc1ccc(C(=O)N2CCc3nc(-c4ccccn4)ncc3C2)cc1F [Example 28, (3-Fluoro-4-methyl-phenyl)-[2-(2-pyridyl)-7,8-dihydro-5H-pyrido[4,3-d]pyrimidin-6-yl]methanone] | 9.34
17 | Cc1cc(C(=O)N2CCc3nc(-c4ccccn4)ncc3C2)no1 [Example 33, (5-Methylisoxazol-3-yl)-[2-(2-pyridyl)-7,8-dihydro-5H-pyrido[4,3-d]pyrimidin-6-yl]methanone] | 8.11
18 | CC1c2cnc(-c3ncccn3)nc2CCN1C(=O)c1nn(C)c2ccccc12 (stereo not shown) [Example 62, (1-Methylindazol-3-yl)-(5-methyl-2-pyrimidin-2-yl-7,8-dihydro-5H-pyrido[4,3-d]pyrimidin-6-yl)methanone] | 0.42
19 | CC1c2cnc(-c3ccccn3)nc2CCN1C(=O)c1cc2ccccc2s1 (stereo not shown) [Example 48, Benzothiophen-2-yl-[5-methyl-2-(2-pyridyl)-7,8-dihydro-5H-pyrido[4,3-d]pyrimidin-6-yl]methanone] | 0.472
20 | COc1cc(C(=O)N2CCc3nc(-c4ccccn4)ncc3C2)ccc1O [Example 25, (4-Hydroxy-3-methoxy-phenyl)-[2-(2-pyridyl)-7,8-dihydro-5H-pyrido[4,3-d]pyrimidin-6-yl]methanone] | 34.3
21 | COc1ccc(C(=O)N2CCc3nc(-c4ccccn4)ncc3C2)cc1 [Example 39, (4-Methoxyphenyl)-[2-(2-pyridyl)-7,8-dihydro-5H-pyrido[4,3-d]pyrimidin-6-yl]methanone] | 10.6
22 | Cc1nc(C(=O)N2CCc3nc(-c4ccccn4)ncc3C2C)sc1C (stereo not shown) [Example 61, (4,5-Dimethylthiazol-2-yl)-[5-methyl-2-(2-pyridyl)-7,8-dihydro-5H-pyrido[4,3-d]pyrimidin-6-yl]methanone] | 0.082
23 | COCCCOc1ccc(C(=O)N2CCc3nc(-c4ccccn4)ncc3C2)cc1OC [Example 26, [3-Methoxy-4-(3-methoxypropoxy)phenyl]-[2-(2-pyridyl)-7,8-dihydro-5H-pyrido[4,3-d]pyrimidin-6-yl]methanone] | 3.18
24 | COc1ccc(C(=O)N2CCc3nc(-c4ccccn4)ncc3C2)cc1Cl [Example 21, (3-Chloro-4-methoxy-phenyl)-[2-(2-pyridyl)-7,8-dihydro-5H-pyrido[4,3-d]pyrimidin-6-yl]methanone] | 5.07
25 | O=C(c1ccc(C(F)(F)F)cc1)N1CCc2nc(-c3ccccn3)ncc2C1 [Example 1, [2-(2-Pyridyl)-7,8-dihydro-5H-pyrido[4,3-d]pyrimidin-6-yl]-[4-(trifluoromethyl)phenyl]methanone] | 15.7
26 | Cc1csc(C(=O)N2CCc3nc(-c4ccccn4)ncc3C2)c1 [Example 32, (4-Methyl-2-thienyl)-[2-(2-pyridyl)-7,8-dihydro-5H-pyrido[4,3-d]pyrimidin-6-yl]methanone] | 1.67
27 | O=C(c1ccc(F)c(O)c1)N1CCc2nc(-c3ccccn3)ncc2C1 [Example 11, (4-Fluoro-3-hydroxy-phenyl)-[2-(2-pyridyl)-7,8-dihydro-5H-pyrido[4,3-d]pyrimidin-6-yl]methanone] | 21
28 | CCOc1cc(OCC)cc(C(=O)N2CCc3nc(-c4ccccn4)ncc3C2)c1 [Example 17, (3,5-Diethoxyphenyl)-[2-(2-pyridyl)-7,8-dihydro-5H-pyrido[4,3-d]pyrimidin-6-yl]methanone] | 7.66
29 | Cc1cnc(C(=O)N2CCc3nc(-c4ccccn4)ncc3C2C)s1 (stereo not shown) [Example 55, [5-Methyl-2-(2-pyridyl)-7,8-dihydro-5H-pyrido[4,3-d]pyrimidin-6-yl]-(5-methylthiazol-2-yl)methanone] | 0.223
30 | COc1cc(C(=O)N2CCc3nc(-c4ccccn4)ncc3C2)ccc1F [Example 9, (4-Fluoro-3-methoxy-phenyl)-[2-(2-pyridyl)-7,8-dihydro-5H-pyrido[4,3-d]pyrimidin-6-yl]methanone] | 11.5
31 | CC1c2cnc(-c3ccccn3)nc2CCN1C(=O)c1nccs1 (stereo not shown) [Example 51, [5-Methyl-2-(2-pyridyl)-7,8-dihydro-5H-pyrido[4,3-d]pyrimidin-6-yl]-thiazol-2-yl-methanone] | 0.627
